For orientation: efflux ratio means the permeability from basolateral to apical divided by that in the opposite direction, in the common usage. What is called Papp A→B is the apparent permeability from the apical to the basolateral side of a cell layer. High values mean ready permeation, low ones poor permeation. As usually defined, the Papp B→A is the apparent permeability from the basolateral to the apical side of a cell layer. The EC50 is the concentration at which the effect is half-maximal.

The text below walks through data of patent US12509460B2 (Skyhawk Therapeutics, Inc., priority 2019, dated 2025).

Each structure is given as a SMILES string.

The subject of series [1] is MDR1-MDCK cell monolayers. Description: Blood-brain-barrier (BBB) penetration potential via MDCK-MDR1 permeability assay. The following applies: for MDCK-MDR1: % Recov A-B: A-B direction; for MDCK-MDR1: % Recov B-A: B-A direction.
In the next series the test system is MDR1. The series is described as above. To be noted: dog, MDCK-MDR1, pH 7.4, MDCK-MDR1: Efflux, efflux ratio.
The next series deals with MDR1 (P-gp). The description is as above. To be noted: dog; for Papp A→B at 120 min, 5 μM: MDCK-MDR1, pH 7.4, MDCK-MDR1: Papp A-B, A-B direction; for Papp B→A at 120 min, 5 μM: MDCK-MDR1, pH 7.4, MDCK-MDR1: Papp B-A, B-A direction.
The nature of series [2]: Quantitative splicing assay (HTT), qPCR. The format is cell-based, human. To be noted: Homo sapiens, GM04724, 24 h, GM04724 lymphoblasts, qPCR, read-out: HTT Splicing: E49-50 EC50. Put shortly: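 Patient lymphoblasts (50,000 cells/well) dosed immediately after plating for 24 h at 2.5 uM to 0.15 nM in 0.1% DMSO. Lysed, cDNA made directly from cells, and inclusion of the intron 49 cryptic exon quantified by TaqMan qPCR.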
A general note: Real-time PCR tracks product formation cycle by cycle.

The test system of series [3] is SMN protein in spinal muscular atrophy (SMA) patient fibroblasts (GM03813, Coriell). As to the kind of experiment: SMN protein assay, Mesoscale Discovery (MSD). It is filed as cell-based, human. To be noted: SMA patient fibroblasts GM03813, 48 hours, MSD; read-out: SMN2 protein EC50. Put shortly: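 SMA patient fibroblasts (GM03813) seeded at 7000 cells/well and exposed to compound at 2.5 μM to 0.6 nM for 48 hours. Lysates assayed for SMN by MSD immunoassay, with absolute SMN amount calculated from a per-plate SMN standard curve (1 μg/ml to 19.5 pg/ml).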

Series [4] has as its system mHTT protein in GM04724 (CAG 70/20) Huntington's disease patient lymphoblast cells. As to the kind of experiment: mHTT protein assay, 2B7-MW1 assay via Mesoscale Discovery (MSD). The following applies: GM04724 Huntington's disease patient lymphoblasts. The format is cell-based, human. Put shortly:
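Patient lymphoblasts treated 48 h with compound from 10 μM to 0.6 nM. mHTT quantified by MSD 2B7-MW1 immunoassay, whose signal depends on polyQ expansion and HTT size. Viability measured on a replicate plate by CellTiter Glo.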

Series [5] has as its system SMN FL and SMN Δ7 in spinal muscular atrophy (SMA) patient fibroblasts (GM03813, Coriell). As to the kind of experiment: Quantitative splicing assay (SMN), qPCR. It is filed as cell-based, human. To be noted: Homo sapiens, Fibroblast, 24 h, SMA patient fibroblasts GM03813, 24 h, qPCR; read-out: SMN2 Splicing FL EC50. On the procedure: Spinal muscular atrophy (SMA) patient fibroblasts (GM03813, Coriell) are plated in 96-well plates at 50,000 cells/well. […] Treated cells are lysed and cDNA synthesized using the Fast Advanced Cells-to-Ct kit (Thermofisher A35378) according to the manufacturer's instructions. 2 μL of each cDNA are used in qPCR reactions. […] Reactions are run in a Quant Studio 6 qPCR instrument with default settings.

Turning to `CCN(c1ccc(-c2ccc(-c3cn[nH]c3)cc2O)nn1)[C@@H]1C[C@H]2CC[C@H](N2)[C@@H]1F` [Compound 12A, 2-(6-(ethyl((1S,2S,3R,5R)-2-fluoro-8-azabicyclo[3.2.1]octan-3-yl)amino)pyridazin-3-yl)-5-(1H-pyrazol-4-yl)phenol], in series [1], the “MDCK-MDR1: % Recov A-B” value was 72%. In addition, the “MDCK-MDR1: % Recov B-A” value in series [1] came out at 74%. For the same compound, the efflux ratio at 120 min, 5 μM with MDR1 worked out at 27. The compound further gave a Papp A→B at 120 min, 5 μM in the series with MDR1 (P-gp) of 0.89 ×10⁻⁶ cm/s. In the series with MDR1 (P-gp), this compound displayed a Papp B→A at 120 min, 5 μM of 23.6 ×10⁻⁶ cm/s. The concentration giving a half-maximal response (EC50) in series [2] was in the range of 51 to 100 nM; in series [3], 16 to 50 nM; in series [4] it was 16 to 50 nM; in series [5] it was 101 to 500 nM.

Regarding `CN(c1ccc(-c2cc3occc(=O)c3cc2O)nn1)[C@@H]1C[C@H]2CC[C@H](N2)[C@@H]1F` [Compound 43A, 7-(6-(((1S,2S,3R,5R)-2-fluoro-8-azabicyclo[3.2.1]octan-3-yl)(methyl)amino)pyridazin-3-yl)-6-hydroxy-4H-chromen-4-one], the “MDCK-MDR1: % Recov A-B” value in series [1] came out at 64%. Besides, the “MDCK-MDR1: % Recov B-A” value in series [1] was found to be 58%. Besides, the efflux ratio at 120 min, 5 μM in the series with MDR1 came out at 11. In the series with MDR1 (P-gp), this compound showed a Papp A→B at 120 min, 5 μM of 2.14 ×10⁻⁶ cm/s. The basolateral-to-apical permeability (Papp B→A) at 120 min, 5 μM in the series on MDR1 (P-gp) was found to be 23.2 ×10⁻⁶ cm/s. Besides, the concentration giving a half-maximal response (EC50) in series [2] lay within 51 to 100 nM; in series [3] it was 0.01 to 15 nM; in series [4], 16 to 50 nM; in series [5] it was 16 to 50 nM.

`CN(c1ccc(-c2cc3ccncc3cc2O)nn1)[C@H]1C[C@@H]2CC[C@@H](N2)[C@H]1F` (single isomer, unassigned) [Compound 87B]: in series [1], the “MDCK-MDR1: % Recov A-B” value amounted to 70%. For the same compound, the “MDCK-MDR1: % Recov B-A” value in series [1] turned out to be 88%. For the same compound, the efflux ratio at 120 min, 5 μM in the series on MDR1 came to 9. Besides, in the series on MDR1 (P-gp), the apparent permeability from apical to basolateral (Papp A→B) at 120 min, 5 μM is 3.3 ×10⁻⁶ cm/s. In addition, in the series on MDR1 (P-gp), the apparent permeability from basolateral to apical (Papp B→A) at 120 min, 5 μM turned out to be 28.7 ×10⁻⁶ cm/s. For the same compound, the EC50 in series [2], in series [3], in series [4] and in series [5] was 0.01 to 15 nM throughout.

Consider `CN(c1ccc(-c2cc(F)c(-n3ccnn3)cc2O)nn1)[C@@H]1C[C@H]2CC[C@H](N2)[C@@H]1F` [Compound 52A, 4-fluoro-2-(6-(((1S,2S,3R,5R)-2-fluoro-8-azabicyclo[3.2.1]octan-3-yl)(methyl)amino)pyridazin-3-yl)-5-(1H-1,2,3-triazol-1-yl)phenol], for which the “MDCK-MDR1: % Recov A-B” value in series [1] was 86%. Moreover, the “MDCK-MDR1: % Recov B-A” value in series [1] is given as 92%. The efflux ratio at 120 min, 5 μM in the series on MDR1 amounted to 8. The same compound yielded a Papp A→B at 120 min, 5 μM in the series on MDR1 (P-gp) of 6.63 ×10⁻⁶ cm/s. This compound came in with a Papp B→A at 120 min, 5 μM in the series on MDR1 (P-gp) of 49.7 ×10⁻⁶ cm/s. In addition, the EC50 was in the range of 101 to 500 nM in series [2], 16 to 50 nM in series [3], 16 to 50 nM in series [4] and 51 to 100 nM in series [5].

For the compound `O=C(c1cc2cc(O)c(-c3ccc(N(C4CC4)[C@H]4C[C@@H]5CC[C@@H](N5)[C@H]4F)nn3)cc2o1)N1CCC1` [Compound 57B, azetidin-1-yl(6-(6-(cyclopropyl((1R,2R,3S,5S)-2-fluoro-8-azabicyclo[3.2.1]octan-3-yl)amino)pyridazin-3-yl)-5-hydroxybenzofuran-2-yl)methanone], the “MDCK-MDR1: % Recov A-B” value in series [1] came out at 99%. In series [1], the “MDCK-MDR1: % Recov B-A” value is 95%. In the series on MDR1, the efflux ratio at 120 min, 5 μM amounted to 71. In the series on MDR1 (P-gp), this compound displayed an apical-to-basolateral permeability (Papp A→B) at 120 min, 5 μM of 0.69 ×10⁻⁶ cm/s. In the series with MDR1 (P-gp), this compound returned a Papp B→A at 120 min, 5 μM of 48.5 ×10⁻⁶ cm/s. Also, the half-maximal effective concentration (EC50) in series [2] was in the range of 16 to 50 nM; in series [3], 0.01 to 15 nM; in series [4] it was 0.01 to 15 nM; in series [5] it was 16 to 50 nM.

With `CN(c1ccc(-c2cc(F)c(-c3ccn(C)c(=O)c3)cc2O)nn1)[C@@H]1C[C@H]2CC[C@H](N2)[C@@H]1F` [Compound 1A, 4-(2-fluoro-4-(6-(((1S,2S,3R,5R)-2-fluoro-8-azabicyclo[3.2.1]octan-3-yl)(methyl)amino)pyridazin-3-yl)-5-hydroxyphenyl)-1-methylpyridin-2(1H)-one], the “MDCK-MDR1: % Recov A-B” value in series [1] amounted to 83%. Also, the “MDCK-MDR1: % Recov B-A” value in series [1] was determined as 88%. Besides, the efflux ratio at 120 min, 5 μM with MDR1 stood at 81. In addition, the apparent permeability from apical to basolateral (Papp A→B) at 120 min, 5 μM in the series on MDR1 (P-gp) was 0.61 ×10⁻⁶ cm/s. In the series with MDR1 (P-gp), the apparent permeability from basolateral to apical (Papp B→A) at 120 min, 5 μM is 49.3 ×10⁻⁶ cm/s. The EC50 in series [2], in series [3], in series [4] and in series [5] was 0.01 to 15 nM each time.

In the case of `C#Cc1ccc(-c2ccc(N(C)[C@@H]3C[C@H]4CC[C@H](N4)[C@@H]3F)nn2)c(O)c1` [Compound 10A, 5-ethynyl-2-(6-(((1S,2S,3R,5R)-2-fluoro-8-azabicyclo[3.2.1]octan-3-yl)(methyl)amino)pyridazin-3-yl)phenol], the “MDCK-MDR1: % Recov A-B” value in series [1] was 55%. For the same compound, in series [1], the “MDCK-MDR1: % Recov B-A” value came to 67%. Moreover, the efflux ratio at 120 min, 5 μM with MDR1 turned out to be 2. Besides, the Papp A→B at 120 min, 5 μM with MDR1 (P-gp) is 11.6 ×10⁻⁶ cm/s. The Papp B→A at 120 min, 5 μM in the series with MDR1 (P-gp) is 19 ×10⁻⁶ cm/s. Also, the EC50 in series [2], in series [3], in series [4] and in series [5] was 0.01 to 15 nM in each case.

On to `CN(c1ccc(-c2cc3oc(=O)n(C)c3cc2O)nn1)[C@@H]1C[C@H]2CC[C@H](N2)[C@@H]1F` (single isomer, unassigned) [Compound 79A], for which the “MDCK-MDR1: % Recov A-B” value in series [1] worked out at 89%. Further, in series [1], the “MDCK-MDR1: % Recov B-A” value was found to be 99%. Moreover, the efflux ratio at 120 min, 5 μM in the series with MDR1 was determined as 14. In the series on MDR1 (P-gp), this compound had a Papp A→B at 120 min, 5 μM of 2.51 ×10⁻⁶ cm/s. The same compound gave a Papp B→A at 120 min, 5 μM in the series with MDR1 (P-gp) of 34.9 ×10⁻⁶ cm/s. Besides, the 50% effective concentration (EC50) lay in the range of 16 to 50 nM in series [2], 0.01 to 15 nM in series [3], 0.01 to 15 nM in series [4] and 16 to 50 nM in series [5].

Regarding `CN(c1ccc(-c2ccc(-c3ccccn3)cc2O)nn1)[C@H]1C[C@@H]2CCC[C@@H](N2)[C@H]1F` [Compound 23B, 2-(6-(((1R,2R,3S,5S)-2-fluoro-9-azabicyclo[3.3.1]nonan-3-yl)(methyl)amino)pyridazin-3-yl)-5-(pyridin-2-yl)phenol], the “MDCK-MDR1: % Recov A-B” value in series [1] was 68%. Besides, in series [1], the “MDCK-MDR1: % Recov B-A” value amounted to 98%. For the same compound, the efflux ratio at 120 min, 5 μM with MDR1 worked out at 15. For the same compound, the Papp A→B at 120 min, 5 μM in the series with MDR1 (P-gp) was 3.17 ×10⁻⁶ cm/s. Further, the Papp B→A at 120 min, 5 μM with MDR1 (P-gp) was found to be 48.2 ×10⁻⁶ cm/s. Further, the concentration giving a half-maximal response (EC50) in series [2] lay in the range of 16 to 50 nM; in series [3], 0.01 to 15 nM; in series [4], 16 to 50 nM; in series [5] it was 16 to 50 nM.

Turning to `CN(c1ccc(-c2cc3c(=O)n(C)ccc3s2)nn1)[C@H]1C[C@@H]2CC[C@@H](N2)[C@H]1F` (single isomer, unassigned) [Compound 68B], in series [1], the “MDCK-MDR1: % Recov A-B” value worked out at 92%. For the same compound, in series [1], the “MDCK-MDR1: % Recov B-A” value was 91%. Further, the efflux ratio at 120 min, 5 μM in the series on MDR1 stood at 113. For the same compound, the apparent permeability from apical to basolateral (Papp A→B) at 120 min, 5 μM in the series with MDR1 (P-gp) was found to be 0.4 ×10⁻⁶ cm/s. In the series on MDR1 (P-gp), this compound registered an apparent permeability from basolateral to apical (Papp B→A) at 120 min, 5 μM of 44.7 ×10⁻⁶ cm/s. Besides, the half-maximal effective concentration (EC50) in series [2] lay within 51 to 100 nM; in series [3] it was 16 to 50 nM; in series [4] it was 101 to 500 nM; in series [5], 51 to 100 nM.
